Experimental data taken from patent US6737383B1, “Herbicidal oxadiazolidines” (priority 1999, dated 2004).

Experiments:
sugar beet = assay: Test B pre/postemergence sugar beet; assay type: in vivo, Beta vulgaris
Summary of the method: (§1)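 Herbicidal effect was estimated by eye on a ten-point control scale after plants spent twelve to sixteen days in a greenhouse following soil or foliar treatment. Foliar sprays targeted plants at one to four leaves; all doses were formulated in a non-phytotoxic solvent with surfactant.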

morningglory = assay: Test B pre/postemergence morningglory; assay type: in vivo, Ipomoea hederacea
Summary of the method: as §1

pigweed = assay: Test B pre/postemergence pigweed; assay type: in vivo, Amaranthus retroflexus
Summary of the method: as §1

crabgrass = assay: Test B pre/postemergence crabgrass; assay type: in vivo, Digitaria sanguinalis
Summary of the method: as §1

smallflower flatsedge = assay: Test B flood test smallflower flatsedge; assay type: in vivo, Cyperus difformis
Summary of the method: (§2)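 Read-out is a visual response score from 0 (no effect) to 10 (complete control), assigned by comparison with untreated controls. Treatment was applied at the 2-leaf stage, and plants stayed in the greenhouse for twelve to sixteen days before scoring.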

velvetleaf = assay: Test B pre/postemergence velvetleaf; assay type: in vivo, Abutilon theophrasti
Summary of the method: as §1

rice = assay: Test B flood test rice; assay type: in vivo, Oryza sativa
Summary of the method: as §2

wild oat = assay: Test B pre/postemergence wild oat; assay type: in vivo, Avena fatua
Summary of the method: as §1

corn = assay: Test B pre/postemergence corn; assay type: in vivo, Zea mays
Summary of the method: as §1

giant foxtail = assay: Test B pre/postemergence giant foxtail; assay type: in vivo, Setaria faberii
Summary of the method: as §1

surinam grass = assay: Test B pre/postemergence surinam grass; assay type: in vivo, Brachiaria decumbens
Summary of the method: as §1

soybean = assay: Test B pre/postemergence soybean; assay type: in vivo, Glycine max
Summary of the method: as §1

rape = assay: Test B pre/postemergence rape; assay type: in vivo, Brassica napus
Summary of the method: as §1

cocklebur = assay: Test B pre/postemergence cocklebur; assay type: in vivo, Xanthium strumarium
Summary of the method: as §1

wheat = assay: Test B pre/postemergence wheat; assay type: in vivo, Triticum aestivum
Summary of the method: as §1

blackgrass = assay: Test B pre/postemergence blackgrass; assay type: in vivo, Alopecurus myosuroides
Summary of the method: as §1

[1] = Postemergence, Rate 62 g/ha, scale 0 to 10, 0 is no effect, 10 is complete control
[2] = Postemergence, Rate 125 g/ha, scale of 0 to 10 where 0 is no effect and 10 is complete control
[3] = Postemergence, Rate 250 g/ha, scale of 0 to 10, 0 is no effect, 10 is complete control
[4] = Preemergence, Rate 62 g/ha, scale of 0 to 10 where 0 is no effect and 10 is complete control
[5] = Preemergence, Rate 125 g/ha, scale of 0 to 10 where 0 is no effect and 10 is complete control
[6] = Preemergence, Rate 250 g/ha, scale 0 to 10 (0 no effect, 10 complete control)
[7] = Preemergence, Rate 500 g/ha, scale of 0 to 10 where 0 is no effect and 10 is complete control
[8] = Postemergence, Rate 500 g/ha, scale of 0 to 10 where 0 is no effect and 10 is complete control
[9] = Rate 62 g/ha, flood test species, Pre-emergence, visual evaluation after twelve to sixteen days
[10] = Rate 125 g/ha, under heading Pre-emergence, flood test species, visual evaluation after twelve to sixteen days
[11] = Rate 250 g/ha, Pre-emergence (flood test species), scale 0 to 10, 0 is no effect, 10 is complete control
[12] = Rate 500 g/ha, Pre-emergence section of Table B, 0 to 10 scale (0 no effect, 10 complete control)

Compound: CC(C)N(C(=O)n1oc(=O)n(CC(=O)C2CC2)c1=O)c1ccc(Cl)cc1 [Compound 639]
- Plant response rating, Sugarbeets (sugar beet; [1]): 0
- Plant response rating, Sugarbeets (sugar beet; [2]): 0
- Sugarbeets plant response rating (sugar beet; [3]): 0
- Sugarbeets plant response rating (sugar beet; [4]): 0
- Sugarbeets plant response rating (sugar beet; [5]): 0
- Plant response rating, Sugarbeets (sugar beet; [6]): 0
- Plant response rating, Sugarbeets (sugar beet; [7]): 6
- Plant response rating, Morningglory (morningglory; [1]): 0
- Plant response rating, Morningglory (morningglory; [2]): 3
- Morningglory plant response rating (morningglory; [3]): 7
- Plant response rating, Morningglory (morningglory; [8]): 7
- Morningglory plant response rating (morningglory; [4]): 0
- Morningglory plant response rating (morningglory; [5]): 0
- Plant response rating, Morningglory (morningglory; [6]): 0
- Plant response rating, Morningglory (morningglory; [7]): 0
- Plant response rating, Redroot pigweed (pigweed; [1]): 3
- Plant response rating, Redroot pigweed (pigweed; [2]): 4
- Redroot pigweed plant response rating (pigweed; [3]): 4
- Redroot pigweed plant response rating (pigweed; [4]): 0
- Redroot pigweed plant response rating (pigweed; [5]): 0
- Plant response rating, Redroot pigweed (pigweed; [6]): 2
- Plant response rating, Redroot pigweed (pigweed; [7]): 10
- Plant response rating, Crabgrass (crabgrass; [1]): 0
- Crabgrass plant response rating (crabgrass; [3]): 2
- Plant response rating, Crabgrass (crabgrass; [8]): 8
- Crabgrass plant response rating (crabgrass; [4]): 7
- Crabgrass plant response rating (crabgrass; [5]): 7
- Plant response rating, Crabgrass (crabgrass; [6]): 9
- Plant response rating, Crabgrass (crabgrass; [7]): 9
- Plant response rating, S. Flatsedge (0 to 10 scale, 0 is no effect, 10 is complete control) (smallflower flatsedge; [9]): 0
- S. Flatsedge plant response rating (0 to 10 scale, 0 is no effect, 10 is complete control) (smallflower flatsedge; [10]): 0
- S. Flatsedge plant response rating (smallflower flatsedge; [11]): 0
- S. Flatsedge plant response rating (smallflower flatsedge; [12]): 0
- Plant response rating, Velvetleaf (velvetleaf; [1]): 0
- Plant response rating, Velvetleaf (velvetleaf; [2]): 0
- Velvetleaf plant response rating (velvetleaf; [3]): 0
- Velvetleaf plant response rating (velvetleaf; [4]): 0
- Velvetleaf plant response rating (velvetleaf; [5]): 0
- Plant response rating, Velvetleaf (velvetleaf; [6]): 0
- Plant response rating, Velvetleaf (velvetleaf; [7]): 3
- Plant response rating, Rice (0 to 10 scale, 0 is no effect, 10 is complete control) (rice; [9]): 0
- Rice plant response rating (0 to 10 scale, 0 is no effect, 10 is complete control) (rice; [10]): 0
- Rice plant response rating (rice; [11]): 0
- Rice plant response rating (rice; [12]): 0
- Plant response rating, Wild oats (wild oat; [1]): 1
- Plant response rating, Wild oats (wild oat; [2]): 1
- Wild oats plant response rating (wild oat; [3]): 1
- Wild oats plant response rating (wild oat; [4]): 0
- Wild oats plant response rating (wild oat; [5]): 0
- Plant response rating, Wild oats (wild oat; [6]): 0
- Plant response rating, Wild oats (wild oat; [7]): 3
- Plant response rating, Corn (corn; [1]): 0
- Plant response rating, Corn (corn; [2]): 0
- Corn plant response rating (corn; [3]): 0
- Plant response rating, Corn (corn; [8]): 0
- Corn plant response rating (corn; [4]): 0
- Corn plant response rating (corn; [5]): 0
- Plant response rating, Corn (corn; [6]): 0
- Plant response rating, Corn (corn; [7]): 0
- Plant response rating, Giant foxtail (giant foxtail; [1]): 0
- Plant response rating, Giant foxtail (giant foxtail; [2]): 0
- Giant foxtail plant response rating (giant foxtail; [3]): 6
- Plant response rating, Giant foxtail (giant foxtail; [8]): 7
- Giant foxtail plant response rating (giant foxtail; [4]): 7
- Giant foxtail plant response rating (giant foxtail; [5]): 9
- Plant response rating, Giant foxtail (giant foxtail; [6]): 9
- Plant response rating, Giant foxtail (giant foxtail; [7]): 9
- Plant response rating, B. signalgrass (surinam grass; [1]): 0
- Plant response rating, B. signalgrass (surinam grass; [2]): 0
- B. signalgrass plant response rating (surinam grass; [3]): 0
- Plant response rating, B. signalgrass (surinam grass; [8]): 2
- B. signalgrass plant response rating (surinam grass; [4]): 0
- B. signalgrass plant response rating (surinam grass; [5]): 0
- Plant response rating, B. signalgrass (surinam grass; [6]): 5
- Plant response rating, B. signalgrass (surinam grass; [7]): 7
- Plant response rating, Soybean (soybean; [1]): 0
- Plant response rating, Soybean (soybean; [2]): 0
- Soybean plant response rating (soybean; [3]): 3
- Soybean plant response rating (soybean; [4]): 0
- Soybean plant response rating (soybean; [5]): 0
- Plant response rating, Soybean (soybean; [6]): 0
- Plant response rating, Soybean (soybean; [7]): 3
- Plant response rating, Rape (rape; [1]): 0
- Plant response rating, Rape (rape; [2]): 0
- Rape plant response rating (rape; [3]): 0
- Plant response rating, Rape (rape; [8]): 3
- Rape plant response rating (rape; [4]): 0
- Rape plant response rating (rape; [5]): 0
- Plant response rating, Rape (rape; [6]): 3
- Plant response rating, Rape (rape; [7]): 10
- Plant response rating, Cocklebur (cocklebur; [1]): 0
- Plant response rating, Cocklebur (cocklebur; [2]): 0
- Cocklebur plant response rating (cocklebur; [3]): 2
- Plant response rating, Cocklebur (cocklebur; [8]): 2
- Cocklebur plant response rating (cocklebur; [4]): 0
- Cocklebur plant response rating (cocklebur; [5]): 0
- Plant response rating, Cocklebur (cocklebur; [6]): 0
- Plant response rating, Cocklebur (cocklebur; [7]): 2
- Plant response rating, Wheat (wheat; [1]): 0
- Plant response rating, Wheat (wheat; [2]): 0
- Wheat plant response rating (wheat; [3]): 0
- Wheat plant response rating (wheat; [4]): 0
- Wheat plant response rating (wheat; [5]): 0
- Plant response rating, Wheat (wheat; [6]): 0
- Plant response rating, Wheat (wheat; [7]): 0
- Plant response rating, Blackgrass (blackgrass; [1]): 0
- Plant response rating, Blackgrass (blackgrass; [2]): 0
- Blackgrass plant response rating (blackgrass; [3]): 2
- Plant response rating, Blackgrass (blackgrass; [8]): 6
- Blackgrass plant response rating (blackgrass; [4]): 0
- Blackgrass plant response rating (blackgrass; [5]): 0
- Plant response rating, Blackgrass (blackgrass; [6]): 2
- Plant response rating, Blackgrass (blackgrass; [7]): 2
